From the kinase profiling compilation of Christmann-Franck et al. (2016)

Key:
Test in all cases: KINOMEscan competition binding
Conditions in all cases: compound 10.0 µM
STK4 (human) = STK4 (human) (UniProt Q13043)
MAP3K5 (human) = MAP3K5 (human) (UniProt Q99683)
TTK (human) = TTK (human) (UniProt P33981)
MAP4K4 (human) = MAP4K4 (human) (UniProt O95819)
MUSK (human) = MUSK (human) (UniProt O15146)
CSNK1G1 (human) = CSNK1G1 (human) (UniProt Q9HCP0)
TEK (human) = TEK (human) (UniProt Q02763)
EPHA7 (human) = EPHA7 (human) (UniProt Q15375)
KDR (human) = KDR (human) (UniProt P35968)
PTK2 (human) = PTK2 (human) (UniProt Q05397)
STK10 (human) = STK10 (human) (UniProt O94804)
SGK110 (human) = SGK110 (human) (UniProt P0C264)
MYO3A (human) = MYO3A (human) (UniProt Q8NEV4)
BRSK2 (human) = BRSK2 (human) (UniProt Q8IWQ3)
DDR2 (human) = DDR2 (human) (UniProt Q16832)
ULK3 (human) = ULK3 (human) (UniProt Q6PHR2)
MINK1 (human) = MINK1 (human) (UniProt Q8N4C8)
MYLK3 (human) = MYLK3 (human) (UniProt Q32MK0)
[1] = molecular target: JAK3 JH1 catalytic (human) (UniProt P52333)
CSNK2A2 (human) = CSNK2A2 (human) (UniProt P19784)
BMPR2 (human) = BMPR2 (human) (UniProt Q13873)
RPS6KA6 KD1 (human) = RPS6KA6 KD1 (human) (UniProt Q9UK32)
GSK3B (human) = GSK3B (human) (UniProt P49841)
HIPK1 (human) = HIPK1 (human) (UniProt Q86Z02)
DAPK1 (human) = DAPK1 (human) (UniProt P53355)
PRKD2 (human) = PRKD2 (human) (UniProt Q9BZL6)
ULK1 (human) = ULK1 (human) (UniProt O75385)
MAPK3 (human) = MAPK3 (human) (UniProt P27361)
MAPK4 (human) = MAPK4 (human) (UniProt P31152)
AURKC (human) = AURKC (human) (UniProt Q9UQB9)
EGFR (human) = EGFR (human) (UniProt P00533)
SLK (human) = SLK (human) (UniProt Q9H2G2)
ANKK1 (human) = ANKK1 (human) (UniProt Q8NFD2)

Sequence of STK10 (human) (O94804 whole entry, looked up): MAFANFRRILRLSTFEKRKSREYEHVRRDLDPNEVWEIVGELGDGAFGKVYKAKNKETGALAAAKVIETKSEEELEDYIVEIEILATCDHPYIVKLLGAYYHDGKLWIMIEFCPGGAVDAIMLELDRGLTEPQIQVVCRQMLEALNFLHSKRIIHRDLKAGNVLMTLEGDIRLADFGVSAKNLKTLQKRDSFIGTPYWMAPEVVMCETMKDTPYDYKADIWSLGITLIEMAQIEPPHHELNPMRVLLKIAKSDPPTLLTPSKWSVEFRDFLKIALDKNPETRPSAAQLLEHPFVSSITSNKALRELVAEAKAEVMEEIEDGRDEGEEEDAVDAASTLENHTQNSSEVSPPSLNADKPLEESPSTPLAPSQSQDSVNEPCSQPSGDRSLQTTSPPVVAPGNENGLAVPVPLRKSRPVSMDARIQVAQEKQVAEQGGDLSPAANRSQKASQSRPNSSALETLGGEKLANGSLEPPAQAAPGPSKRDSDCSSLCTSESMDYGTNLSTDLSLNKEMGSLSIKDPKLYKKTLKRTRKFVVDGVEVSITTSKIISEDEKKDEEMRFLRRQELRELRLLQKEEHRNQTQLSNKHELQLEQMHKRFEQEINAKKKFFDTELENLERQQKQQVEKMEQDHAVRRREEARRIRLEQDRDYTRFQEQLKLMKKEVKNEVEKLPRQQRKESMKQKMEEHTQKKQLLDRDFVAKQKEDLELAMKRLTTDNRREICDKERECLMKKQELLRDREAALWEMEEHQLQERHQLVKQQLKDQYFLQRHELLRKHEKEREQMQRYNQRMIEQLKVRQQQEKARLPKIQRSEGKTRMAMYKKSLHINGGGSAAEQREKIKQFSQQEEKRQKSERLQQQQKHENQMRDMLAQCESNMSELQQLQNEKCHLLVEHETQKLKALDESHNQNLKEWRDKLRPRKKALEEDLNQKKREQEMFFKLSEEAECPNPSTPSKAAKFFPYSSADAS
Sequence of HIPK1 (human) (Q86Z02 whole entry, looked up): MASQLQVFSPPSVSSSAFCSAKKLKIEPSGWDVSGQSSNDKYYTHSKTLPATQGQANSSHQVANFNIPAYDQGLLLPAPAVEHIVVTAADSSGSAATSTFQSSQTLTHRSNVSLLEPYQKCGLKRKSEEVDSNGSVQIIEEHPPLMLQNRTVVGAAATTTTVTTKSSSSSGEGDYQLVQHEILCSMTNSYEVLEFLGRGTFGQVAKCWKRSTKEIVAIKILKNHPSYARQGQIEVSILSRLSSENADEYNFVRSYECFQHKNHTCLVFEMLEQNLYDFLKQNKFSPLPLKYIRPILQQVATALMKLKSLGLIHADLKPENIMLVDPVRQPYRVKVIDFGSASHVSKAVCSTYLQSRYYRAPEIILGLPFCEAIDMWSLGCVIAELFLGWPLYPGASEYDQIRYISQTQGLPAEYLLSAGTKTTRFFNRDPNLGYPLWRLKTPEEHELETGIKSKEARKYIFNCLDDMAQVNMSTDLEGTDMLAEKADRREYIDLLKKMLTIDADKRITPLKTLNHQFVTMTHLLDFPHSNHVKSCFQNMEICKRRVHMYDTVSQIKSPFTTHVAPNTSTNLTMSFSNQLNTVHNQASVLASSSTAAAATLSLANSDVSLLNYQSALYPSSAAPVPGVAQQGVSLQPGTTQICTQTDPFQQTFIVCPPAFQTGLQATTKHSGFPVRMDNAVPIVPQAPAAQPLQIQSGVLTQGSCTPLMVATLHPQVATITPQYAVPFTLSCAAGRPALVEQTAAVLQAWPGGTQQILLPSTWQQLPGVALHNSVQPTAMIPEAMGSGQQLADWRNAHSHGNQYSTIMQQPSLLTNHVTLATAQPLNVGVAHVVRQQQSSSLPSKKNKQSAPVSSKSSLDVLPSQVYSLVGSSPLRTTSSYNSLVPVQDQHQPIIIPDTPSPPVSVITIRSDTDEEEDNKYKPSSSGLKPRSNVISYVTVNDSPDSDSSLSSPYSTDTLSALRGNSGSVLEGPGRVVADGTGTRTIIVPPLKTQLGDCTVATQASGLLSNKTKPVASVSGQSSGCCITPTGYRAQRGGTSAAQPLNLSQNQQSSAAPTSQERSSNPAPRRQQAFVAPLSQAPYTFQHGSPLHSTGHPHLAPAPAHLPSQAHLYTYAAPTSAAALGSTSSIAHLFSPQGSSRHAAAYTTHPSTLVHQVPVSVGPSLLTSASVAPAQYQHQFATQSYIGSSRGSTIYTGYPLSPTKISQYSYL
Sequence of PRKD2 (human) (Q9BZL6 whole entry, looked up): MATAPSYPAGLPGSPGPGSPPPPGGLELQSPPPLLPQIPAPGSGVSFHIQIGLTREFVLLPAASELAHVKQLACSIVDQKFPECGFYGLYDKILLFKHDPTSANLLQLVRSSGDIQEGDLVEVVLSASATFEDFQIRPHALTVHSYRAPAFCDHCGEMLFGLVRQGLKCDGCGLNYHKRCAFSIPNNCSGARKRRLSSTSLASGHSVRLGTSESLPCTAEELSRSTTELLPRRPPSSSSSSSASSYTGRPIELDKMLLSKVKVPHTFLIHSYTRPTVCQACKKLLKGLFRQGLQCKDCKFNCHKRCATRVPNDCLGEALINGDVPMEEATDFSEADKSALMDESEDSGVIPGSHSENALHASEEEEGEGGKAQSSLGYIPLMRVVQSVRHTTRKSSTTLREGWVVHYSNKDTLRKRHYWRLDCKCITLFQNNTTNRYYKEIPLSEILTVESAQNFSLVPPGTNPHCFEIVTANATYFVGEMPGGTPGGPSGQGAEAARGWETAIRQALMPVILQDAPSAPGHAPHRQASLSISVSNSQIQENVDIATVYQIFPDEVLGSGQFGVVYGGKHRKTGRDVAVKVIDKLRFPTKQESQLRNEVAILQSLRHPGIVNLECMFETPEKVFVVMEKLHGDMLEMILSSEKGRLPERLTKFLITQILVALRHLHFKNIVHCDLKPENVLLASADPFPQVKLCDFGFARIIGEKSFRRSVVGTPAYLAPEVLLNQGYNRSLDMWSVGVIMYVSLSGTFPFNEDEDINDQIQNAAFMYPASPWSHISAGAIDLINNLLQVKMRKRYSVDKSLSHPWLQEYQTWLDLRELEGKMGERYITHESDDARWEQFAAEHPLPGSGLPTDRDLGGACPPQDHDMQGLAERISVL
Sequence of MYO3A (human) (Q8NEV4 whole entry, looked up): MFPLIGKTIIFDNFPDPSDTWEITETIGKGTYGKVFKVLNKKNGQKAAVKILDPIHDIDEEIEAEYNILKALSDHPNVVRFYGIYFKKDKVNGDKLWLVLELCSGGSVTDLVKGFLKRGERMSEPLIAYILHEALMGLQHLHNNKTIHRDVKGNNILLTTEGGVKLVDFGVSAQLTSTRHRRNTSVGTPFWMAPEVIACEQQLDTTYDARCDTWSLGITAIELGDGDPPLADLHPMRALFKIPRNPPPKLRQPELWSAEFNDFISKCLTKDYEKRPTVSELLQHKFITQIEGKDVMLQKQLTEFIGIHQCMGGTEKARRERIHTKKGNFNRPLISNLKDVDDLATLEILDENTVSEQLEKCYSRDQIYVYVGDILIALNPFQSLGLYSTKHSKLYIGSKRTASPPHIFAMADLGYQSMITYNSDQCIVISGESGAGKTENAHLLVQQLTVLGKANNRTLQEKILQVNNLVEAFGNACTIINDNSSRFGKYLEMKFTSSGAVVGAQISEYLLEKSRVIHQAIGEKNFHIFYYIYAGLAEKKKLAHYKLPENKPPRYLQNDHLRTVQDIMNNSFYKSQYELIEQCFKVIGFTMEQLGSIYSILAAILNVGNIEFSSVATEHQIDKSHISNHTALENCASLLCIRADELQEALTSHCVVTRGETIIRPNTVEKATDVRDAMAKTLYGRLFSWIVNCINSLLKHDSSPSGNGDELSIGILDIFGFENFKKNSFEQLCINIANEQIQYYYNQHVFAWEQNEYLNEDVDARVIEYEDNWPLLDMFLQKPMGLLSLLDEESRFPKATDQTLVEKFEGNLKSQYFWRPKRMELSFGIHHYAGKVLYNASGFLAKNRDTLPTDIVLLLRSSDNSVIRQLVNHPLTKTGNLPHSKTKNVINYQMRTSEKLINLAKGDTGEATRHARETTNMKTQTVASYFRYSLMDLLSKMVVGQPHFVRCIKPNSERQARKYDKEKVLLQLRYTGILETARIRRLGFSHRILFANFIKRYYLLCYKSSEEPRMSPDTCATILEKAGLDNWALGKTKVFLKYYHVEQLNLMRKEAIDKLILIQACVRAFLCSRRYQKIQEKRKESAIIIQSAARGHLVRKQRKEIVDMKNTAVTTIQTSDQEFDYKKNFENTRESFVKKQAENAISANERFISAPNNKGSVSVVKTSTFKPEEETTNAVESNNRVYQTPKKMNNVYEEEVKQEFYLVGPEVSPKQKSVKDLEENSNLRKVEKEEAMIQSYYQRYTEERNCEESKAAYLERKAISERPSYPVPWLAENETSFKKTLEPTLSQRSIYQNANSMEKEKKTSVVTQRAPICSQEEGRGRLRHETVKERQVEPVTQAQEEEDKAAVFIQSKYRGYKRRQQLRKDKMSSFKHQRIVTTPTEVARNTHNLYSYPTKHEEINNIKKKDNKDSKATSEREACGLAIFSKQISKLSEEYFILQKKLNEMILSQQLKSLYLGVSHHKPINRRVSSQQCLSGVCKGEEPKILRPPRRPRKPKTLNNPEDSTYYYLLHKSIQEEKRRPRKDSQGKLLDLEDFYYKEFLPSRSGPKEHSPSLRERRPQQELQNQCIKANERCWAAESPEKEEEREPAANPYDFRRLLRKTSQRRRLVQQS
Sequence of AURKC (human) (Q9UQB9 whole entry, looked up): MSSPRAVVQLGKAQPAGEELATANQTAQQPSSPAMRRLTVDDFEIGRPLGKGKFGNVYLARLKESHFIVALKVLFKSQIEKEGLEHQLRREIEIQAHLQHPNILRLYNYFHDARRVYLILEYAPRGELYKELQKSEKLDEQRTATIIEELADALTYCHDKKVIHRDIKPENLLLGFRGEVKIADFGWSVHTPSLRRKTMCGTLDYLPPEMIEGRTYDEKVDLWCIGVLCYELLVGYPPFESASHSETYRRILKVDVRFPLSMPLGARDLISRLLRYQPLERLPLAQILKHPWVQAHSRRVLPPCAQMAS

Work on `C=CC(=O)Nc1ccc(CN(C(=O)Nc2c(Cl)c(OC)cc(OC)c2Cl)c2cc(Nc3ccc(N4CCN(C)CC4)cc3)ncn2)cc1` yielded a kinase still bound, per cent of control (STK4 (human)) of 100%, a kinase still bound, per cent of control (MAP3K5 (human)) of 100% and a kinase still bound, per cent of control (TTK (human)) of 100%. The kinase still bound, per cent of control (MAP4K4 (human)) was 100%, the kinase still bound, per cent of control (MUSK (human)) was 6.2% and the kinase still bound, per cent of control (CSNK1G1 (human)) was 100%. The kinase still bound, per cent of control (TEK (human)) was 0.95%, the kinase still bound, per cent of control (EPHA7 (human)) was 100% and the kinase still bound, per cent of control (KDR (human)) was 0.45%. For the same molecule, the kinase still bound, per cent of control (PTK2 (human)) was 100%, the kinase still bound, per cent of control (STK10 (human)) was 0.1% and the kinase still bound, per cent of control (SGK110 (human)) was 100%. It also gave a kinase still bound, per cent of control (MYO3A (human)) of 100%, a kinase still bound, per cent of control (BRSK2 (human)) of 100% and a kinase still bound, per cent of control (DDR2 (human)) of 100%. For the same molecule, the kinase still bound, per cent of control (ULK3 (human)) was 100%, the kinase still bound, per cent of control (MINK1 (human)) was 100% and the kinase still bound, per cent of control (MYLK3 (human)) was 100%. For the same molecule, the kinase still bound, per cent of control [1] was 0.15%, the kinase still bound, per cent of control (CSNK2A2 (human)) was 100% and the kinase still bound, per cent of control (BMPR2 (human)) was 8.9%. It also gave a kinase still bound, per cent of control (RPS6KA6 KD1 (human)) of 100%, a kinase still bound, per cent of control (GSK3B (human)) of 100% and a kinase still bound, per cent of control (HIPK1 (human)) of 100%. For the same molecule, the kinase still bound, per cent of control (DAPK1 (human)) was 100%, the kinase still bound, per cent of control (PRKD2 (human)) was 100% and the kinase still bound, per cent of control (ULK1 (human)) was 100%. It also gave a kinase still bound, per cent of control (MAPK3 (human)) of 100%, a kinase still bound, per cent of control (MAPK4 (human)) of 100% and a kinase still bound, per cent of control (AURKC (human)) of 100%. The kinase still bound, per cent of control (EGFR (human)) was 0.35%, the kinase still bound, per cent of control (SLK (human)) was 9.8% and the kinase still bound, per cent of control (ANKK1 (human)) was 100%.

`Cc1n[nH]c2ccc(-c3cncc(OC[C@@H](N)Cc4c[nH]c5ccccc45)c3)cc12` was tested, and the kinase still bound, per cent of control (STK4 (human)) was 100%, the kinase still bound, per cent of control (MAP3K5 (human)) was 100% and the kinase still bound, per cent of control (TTK (human)) was 100%. For the same molecule, the kinase still bound, per cent of control (MAP4K4 (human)) was 2.2%, the kinase still bound, per cent of control (MUSK (human)) was 100% and the kinase still bound, per cent of control (CSNK1G1 (human)) was 3.7%. The kinase still bound, per cent of control (TEK (human)) was 100%, the kinase still bound, per cent of control (EPHA7 (human)) was 100% and the kinase still bound, per cent of control (KDR (human)) was 100%. The kinase still bound, per cent of control (PTK2 (human)) was 100%, the kinase still bound, per cent of control (STK10 (human)) was 100% and the kinase still bound, per cent of control (SGK110 (human)) was 100%. The kinase still bound, per cent of control (MYO3A (human)) was 100%, the kinase still bound, per cent of control (BRSK2 (human)) was 100% and the kinase still bound, per cent of control (DDR2 (human)) was 100%. For the same molecule, the kinase still bound, per cent of control (ULK3 (human)) was 100%, the kinase still bound, per cent of control (MINK1 (human)) was 6.2% and the kinase still bound, per cent of control (MYLK3 (human)) was 2.8%. It also gave a kinase still bound, per cent of control [1] of 32%, a kinase still bound, per cent of control (CSNK2A2 (human)) of 13% and a kinase still bound, per cent of control (BMPR2 (human)) of 100%. The kinase still bound, per cent of control (RPS6KA6 KD1 (human)) was 100%, the kinase still bound, per cent of control (GSK3B (human)) was 1% and the kinase still bound, per cent of control (HIPK1 (human)) was 0.05%. The kinase still bound, per cent of control (DAPK1 (human)) was 2.2%, the kinase still bound, per cent of control (PRKD2 (human)) was 0% and the kinase still bound, per cent of control (ULK1 (human)) was 22%. The kinase still bound, per cent of control (MAPK3 (human)) was 100%, the kinase still bound, per cent of control (MAPK4 (human)) was 100% and the kinase still bound, per cent of control (AURKC (human)) was 34%. The kinase still bound, per cent of control (SLK (human)) was 100% and the kinase still bound, per cent of control (ANKK1 (human)) was 100%.

For `CCN(CC)CCCCNc1ncc2cc(-c3cc(OC)cc(OC)c3)c(NC(=O)NC(C)(C)C)nc2n1`, the kinase still bound, per cent of control (STK4 (human)) was 100%, the kinase still bound, per cent of control (MAP3K5 (human)) was 100% and the kinase still bound, per cent of control (TTK (human)) was 100%. For the same molecule, the kinase still bound, per cent of control (MAP4K4 (human)) was 100%, the kinase still bound, per cent of control (MUSK (human)) was 100% and the kinase still bound, per cent of control (CSNK1G1 (human)) was 100%. For the same molecule, the kinase still bound, per cent of control (TEK (human)) was 100%, the kinase still bound, per cent of control (EPHA7 (human)) was 100% and the kinase still bound, per cent of control (KDR (human)) was 21%. It also gave a kinase still bound, per cent of control (PTK2 (human)) of 100%, a kinase still bound, per cent of control (STK10 (human)) of 100% and a kinase still bound, per cent of control (MYO3A (human)) of 100%. For the same molecule, the kinase still bound, per cent of control (BRSK2 (human)) was 100%, the kinase still bound, per cent of control (DDR2 (human)) was 100% and the kinase still bound, per cent of control (MYLK3 (human)) was 100%. The kinase still bound, per cent of control [1] was 100%, the kinase still bound, per cent of control (CSNK2A2 (human)) was 100% and the kinase still bound, per cent of control (BMPR2 (human)) was 100%. The kinase still bound, per cent of control (RPS6KA6 KD1 (human)) was 100%, the kinase still bound, per cent of control (GSK3B (human)) was 100% and the kinase still bound, per cent of control (DAPK1 (human)) was 100%. For the same molecule, the kinase still bound, per cent of control (PRKD2 (human)) was 100%, the kinase still bound, per cent of control (MAPK3 (human)) was 100% and the kinase still bound, per cent of control (MAPK4 (human)) was 100%. It also gave a kinase still bound, per cent of control (AURKC (human)) of 100%, a kinase still bound, per cent of control (SLK (human)) of 100% and a kinase still bound, per cent of control (ANKK1 (human)) of 100%.

`CNC(=O)c1ccc(Nc2cc(Nc3ccccc3S(=O)(=O)C(C)C)c3cc[nH]c3n2)nc1` showed a kinase still bound, per cent of control (STK4 (human)) of 4.2%, a kinase still bound, per cent of control (MAP3K5 (human)) of 100% and a kinase still bound, per cent of control (TTK (human)) of 4.6%. For the same molecule, the kinase still bound, per cent of control (MAP4K4 (human)) was 31%, the kinase still bound, per cent of control (MUSK (human)) was 0.95% and the kinase still bound, per cent of control (CSNK1G1 (human)) was 16%. For the same molecule, the kinase still bound, per cent of control (TEK (human)) was 1.8%, the kinase still bound, per cent of control (EPHA7 (human)) was 1.7% and the kinase still bound, per cent of control (KDR (human)) was 100%. For the same molecule, the kinase still bound, per cent of control (PTK2 (human)) was 0%, the kinase still bound, per cent of control (STK10 (human)) was 0% and the kinase still bound, per cent of control (SGK110 (human)) was 7.4%. The kinase still bound, per cent of control (MYO3A (human)) was 100%, the kinase still bound, per cent of control (BRSK2 (human)) was 100% and the kinase still bound, per cent of control (DDR2 (human)) was 100%. For the same molecule, the kinase still bound, per cent of control (ULK3 (human)) was 3.7%, the kinase still bound, per cent of control (MINK1 (human)) was 100% and the kinase still bound, per cent of control (MYLK3 (human)) was 100%. For the same molecule, the kinase still bound, per cent of control [1] was 1.8%, the kinase still bound, per cent of control (CSNK2A2 (human)) was 18% and the kinase still bound, per cent of control (BMPR2 (human)) was 7.9%. The kinase still bound, per cent of control (RPS6KA6 KD1 (human)) was 29%, the kinase still bound, per cent of control (GSK3B (human)) was 100% and the kinase still bound, per cent of control (HIPK1 (human)) was 100%. It also gave a kinase still bound, per cent of control (DAPK1 (human)) of 100%, a kinase still bound, per cent of control (PRKD2 (human)) of 100% and a kinase still bound, per cent of control (ULK1 (human)) of 7.2%. For the same molecule, the kinase still bound, per cent of control (MAPK3 (human)) was 100%, the kinase still bound, per cent of control (MAPK4 (human)) was 100% and the kinase still bound, per cent of control (AURKC (human)) was 0.65%. For the same molecule, the kinase still bound, per cent of control (EGFR (human)) was 100%, the kinase still bound, per cent of control (SLK (human)) was 0% and the kinase still bound, per cent of control (ANKK1 (human)) was 100%.
